From patent US5399697A, “N,N',N'-trisubstituted-5-bisaminomethylene-1,3-dioxane-4,6-dione inhibitors of acyl-CoA:cholesterol-acyl transferase” (American Home Products Corporation, priority 1993, dated 1995)
Read-outs that look alike come from different tables or passages of the source.

What was measured:
[1] = test system: acyl-coenzyme A: cholesterol acyltransferase; assay: Inhibition of ACAT / intracellular cholesterol esterification in vitro (procedure of Ross et al.); type: cell-based; details: for IC50: read-out: IC50
[2] = test system: cholesterol absorption; assay: 14C-cholesterol absorption in normal rats (oral gavage); type: in vivo; details: Rattus norvegicus; for ED50: normal fed rats
Procedure: Representative compounds were further tested in vivo to establish the percent inhibition of cholesterol absorption. In this study, normal rats were dosed (oral gavage) with ^14 C-cholesterol plus the test compound. Blood samples taken at six hours and/or intermittently up to twenty-four hours were analyzed and the percent inhibition of cholesterol absorption was calculated.

[3] = test system: plasma cholesterol; assay: Plasma cholesterol in cholesterol-cholic acid fed rats; type: in vivo; details: Rattus norvegicus, oral gavage; for ED50: fifty percent reduction of plasma cholesterol
Procedure: In addition, representative compounds were studied in vivo in cholesterol-cholic acid fed rats to determine the percent decrease of cholesterol in their plasma. This study involves rats which are, prior to testing, trained for one week to eat over a four hour time period each day. Upon initiation of the experiment, the rats diet is supplemented with 1.0 percent cholesterol and 0.25 percent cholic acid. The rats are dosed with the test compound by oral gavage just prior to adjust following the four hour feeding period. This is repeated for four days. On the fifth day, the rats are sacrificed and the total plasma cholesterol content is determined. The percent decrease in elevated plasma cholesterol levels is calculated in comparison with […].

[4] = test system: low density lipoprotein oxidation; assay: Antioxidant properties, low density lipoprotein oxidation studies (Parthasarathy et al.); type: biochemical; details: result in words
Source text: (§1) The use of antioxidants in the treatment of atherosclerosis is also known to be of therapeutic value.

[5] = test system: lipoperoxide; assay: Antioxidant properties, lipoperoxide study of Yagi; type: biochemical; details: result in words
Source text: as §1

[6] = normal rats, read-out: % Inhibition of Absorption
[7] = 96 h, four days, read-out: % Decrease in Plasma Cholesterol

SMILES	IC50 [1]	ED50 [2]	ED50 [3]	% Inhibition ([1]; 25 μM)	change in vivo at 10 mg/kg [2, 6]	also measured
CCCCCCCN(Cc1ccc(C(C)(C)C)cc1)C(Nc1ccc(OC)cc1OC)=C1C(=O)OC(C)(C)OC1=O [Compound 2]	900 nM	44 mg/kg	99 mg/kg	–	–	% Inhibition ([1]; 50 μM): 85%; change in vivo at 200 mg/kg [2, 6]: -88%
CCCCCC(C)N(Cc1ccc(C(C)(C)C)cc1)C(Nc1ccc(OC)cc1OC)=C1C(=O)OC(C)(C)OC1=O (centres unmarked) [Compound 4, 5-[[(2,4-Dimethoxophenyl)amino][[[4-(1,1-dimethylethyl)phenyl]methyl](1-methylhexyl)amino]-methylene]-2,2-dimethyl-1,3-dioxane-4,6-dione]	260 nM	10 mg/kg	64 mg/kg	99%	–	change in vivo at 200 mg/kg [2, 6]: -93%; change in vivo at 100 mg/kg [3, 7]: -98%
CCCCCCCN(Cc1ccc(C(C)(C)C)cc1)C(Nc1ccc(N(C)C)cc1)=C1C(=O)OC(C)(C)OC1=O [Compound 5, 5-[[[4-(Dimethylamino)phenyl]amino][[[4-(1,1-dimethylethyl)phenyl]methyl]heptylamino]methylene]-2,2-dimethyl-1,3-dioxane-4,6-dione]	1100 nM	–	–	99%	–	change in vivo at 200 mg/kg [2, 6]: -91%; change in vivo at 100 mg/kg [3, 7]: -35%
CCCCCC(C)N(Cc1ccc(CC(C)(C)C)cc1)C(Nc1ccc(OC)cc1OC)=C1C(=O)OC(C)(C)OC1=O (centres unmarked) [Compound 7, 5-[[(2,4-Dimethoxyphenyl)amino][[[4-(2,2-dimethylpropyl)phenyl]methyl](1-methylhexyl)amino]methylene]-2,2-dimethyl-1,3-dioxane-4,6-dione]	830 nM	3 mg/kg	6 mg/kg	99%	–	change in vivo at 100 mg/kg ([3]; 96 h, heading: % Decrease in Plasma Cholesterol, four days): -100%
COc1ccc(NC(=C2C(=O)OC(C)(C)OC2=O)N(Cc2ccc(CC(C)C)cc2)C2CCN(CCc3ccccc3)CC2)c(OC)c1 [Compound 8, 5-[[(2,4-Dimethoxyphenyl)amino][[[4-(2-methylpropyl)phenyl]methyl][1-(phenylethyl)-4-piperidinyl]amino]methylene]-2,2-dimethyl-1,3-dioxane-4,6-dione]	5600 nM	–	–	85%	-16%	–
CCCCCC(C)N(Cc1ccc(C(C)(C)C)cc1)C(Nc1ccc(N(C)C)cc1)=C1C(=O)OC(C)(C)OC1=O (centres unmarked) [Compound 21, 5-[[[4-(Dimethylamino)phenyl]amino][[[4-(1,1-dimethylethyl)phenyl]methyl](1-methylhexyl)-amino]methylene]-2,2-dimethyl-1,3-dioxane-4,6-dione]	250 nM	–	–	98%	–	change in vivo at 75 mg/kg ([2]; normal rats, 75 mg/kg, read-out: % Inhibition of Absorption): -83%; change in vivo at 100 mg/kg [3, 7]: -78%
CCCCCC(C)N(Cc1ccc(C(C)(C)C)cc1)C(Nc1ccc(OCCCC)cc1)=C1C(=O)OC(C)(C)OC1=O (centres unmarked) [Compound 27, 5-[[(4-Butoxyphenyl)amino][[[4-(1,1-dimethylethyl)phenyl]methyl](1-methylhexyl)amino]-methylene]-2,2-dimethyl-1,3-dioxane-4,6-dione]	230 nM	–	–	96%	–	change in vivo at 20 mg/kg [2, 6]: -58%; change in vivo at 40 mg/kg [3, 7]: -31%
CCCCCC(C)N(Cc1ccc(CC(C)C)cc1)C(Nc1ccc(OC)cc1OC)=C1C(=O)OC(C)(C)OC1=O (centres unmarked) [Compound 32, 5-[[(2,4-Dimethoxyphenyl)amino][(1-methylhexyl)[[4-(2-methylpropyl)phenyl]methyl]amino]-methylene]-2,2-dimethyl-1,3-dioxane-4,6-dione]	240 nM	4 mg/kg	17 mg/kg	98%	–	change in vivo at 20 mg/kg [2, 6]: -79%; change in vivo at 60 mg/kg ([3]; 96 h, heading: % Decrease in Plasma Cholesterol, four days, 60 mg/kg): -97%
CCCCCC(C)N(Cc1ccc(CC(C)(C)C)cc1)C(Nc1c(C)cc(N(C)C)cc1C)=C1C(=O)OC(C)(C)OC1=O (centres unmarked) [Compound 33, 5-[[[2,6-Dimethyl-4-(dimethylamino)phenyl]amino][[[4-(2,2-dimethylpropyl)phenyl]methyl](1-methylhexyl)amino]methylene]-2,2-dimethyl-1,3-dioxane-4,6-dione]	380 nM	–	–	98%	–	change in vivo at 50 mg/kg [2, 6]: -86%; change in vivo at 20 mg/kg [3, 7]: -30%
CCCCCC(C)N(Cc1ccc(CC(C)(C)C)cc1)C(Nc1ccc(N(C)C)cc1)=C1C(=O)OC(C)(C)OC1=O (centres unmarked) [Compound 37]	690 nM	–	18 mg/kg	99%	–	change in vivo at 50 mg/kg [2, 6]: -85%; change in vivo at 40 mg/kg [3, 7]: -72%
CCCCCc1ccc(CN(C(Nc2ccc(OC)cc2OC)=C2C(=O)OC(C)(C)OC2=O)C(C)CCCCC)cc1 (centres unmarked) [Compound 40]	360 nM	2 mg/kg	7 mg/kg	99%	-69%	change in vivo at 40 mg/kg [3, 7]: -78%
CCCCCc1ccc(CN(C(Nc2ccc(N(C)C)cc2)=C2C(=O)OC(C)(C)OC2=O)C(C)CCCCC)cc1 (centres unmarked) [Compound 41, 5-[[[4-(Dimethylamino)phenyl]amino][(1-methylhexyl)[(4-pentylphenyl)methyl]amino]-methylene]-2,2-dimethyl-1,3-dioxane-4,6-dione]	260 nM	3 mg/kg	7 mg/kg	98%	–	change in vivo at 40 mg/kg [3, 7]: -89%
CC(C)CCCC(C)N(Cc1ccc(CC(C)C)cc1)C(Nc1ccc(N(C)C)cc1)=C1C(=O)OC(C)(C)OC1=O (centres unmarked) [Compound 42]	270 nM	5 mg/kg	–	98%	–	change in vivo at 40 mg/kg [3, 7]: -63%
CCCCCCOc1ccc(NC(=C2C(=O)OC(C)(C)OC2=O)N(Cc2ccc(CC(C)C)cc2)C(C)CCCCC)cc1 (centres unmarked) [Compound 43, 5-[[[4-(Hexyloxy)phenyl]amino][(1-methylhexyl)[[4-(2methylpropyl)phenyl]methyl]amino]-methylene]-2,2-dimethyl-1,3-dioxane-4,6,-dione]	410 nM	–	–	97%	-52%	change in vivo at 40 mg/kg [3, 7]: -67%
CCCCCC(C)N(Cc1ccc(CC(C)C)cc1)C(Nc1ccc(N(C)C)cc1C)=C1C(=O)OC(C)(C)OC1=O (centres unmarked) [Compound 46]	350 nM	2 mg/kg	8 mg/kg	98%	-82%	change in vivo at 20 mg/kg [3, 7]: -70%
CCCCCC(C)N(Cc1ccc(CC(C)(C)C)cc1)C(Nc1ccc(N(C)C)cc1C)=C1C(=O)OC(C)(C)OC1=O (centres unmarked) [Compound 47]	260 nM	3 mg/kg	16 mg/kg	98%	-83%	–
CCCCCCCN(Cc1ccc(CC(C)(C)C)cc1)C(Nc1ccc(OC)cc1OC)=C1C(=O)OC(C)(C)OC1=O [Compound 48, 5-[[(2,4-Dimethoxyphenyl)amino][[[4-(2,2-dimethylpropyl)phenyl]methyl]heptylamino]-methylene]-2,2-dimethyl-1,3-dioxane-4,6-dione]	2900 nM	11 mg/kg	25 mg/kg	94%	–	change in vivo at 200 mg/kg [2, 6]: -84%; change in vivo at 100 mg/kg [3, 7]: -60%
COc1ccc(NC(=C2C(=O)OC(C)(C)OC2=O)N(Cc2ccc(CC(C)C)cc2)C(C)CCCC(C)(C)O)c(OC)c1 (centres unmarked) [Compound 52, 5-[[(2,4-Dimethoxyphenyl)amino][(5-hydroxy-1,5-dimethylhexyl)[[4-(2-methylpropyl)phenyl]-methyl]amino]methylene]-2,2-dimethyl-1,3-dioxane-2,4-dione]	5600 nM	–	–	89%	-29%	–
CC(C)Cc1ccc(CN(C(Nc2ccc(N(C)C)cc2)=C2C(=O)OC(C)(C)OC2=O)C(C)CCCC(C)(C)O)cc1 (centres unmarked) [Compound 53]	5200 nM	–	–	81%	-50%	–
CCCCCCCN(Cc1ccc(C(C)(C)C)cc1)C(Nc1c(OC)cc(OC)cc1OC)=C1C(=O)OC(C)(C)OC1=O [Compound 59, 5-[[[[4-(1,1-Dimethylethyl)phenyl]methyl]heptylamino][(2,4,6-trimethoxyphenyl)amino]-methylene]-2,2-dimethyl-1,3-dioxane-4,6-dione]	700 nM	–	–	94%	–	change in vivo at 200 mg/kg [2, 6]: -21%
CCCCCC(C)N(Cc1ccc(CC(C)(C)C)cc1)C(Nc1cc(C(C)(C)C)c(O)c(C(C)(C)C)c1)=C1C(=O)OC(C)(C)OC1=O (centres unmarked) [Compound 75]	–	–	–	–	–	antioxidant properties in low density lipoprotein oxidation studies [4]: demonstrated antioxidant properties; antioxidant properties in the lipoperoxide study [5]: demonstrated antioxidant properties
CC1(C)OC(=O)C(=C(Nc2cc(C(C)(C)C)c(O)c(C(C)(C)C)c2)Nc2cnc3ccccc3c2)C(=O)O1 [Compound 81, 5-[(3,5-Di-tert-butyl-4-hydroxy-phenylamino)-(quinolin-3-ylamino)-methylene]-2,2-dimethyl-[1,3]dioxane-4,6-dione]	–	–	–	–	–	% Inhibition ([1]; 50 μM): 90%; change in vivo at 3 mg/kg ([2]; normal rats, 3 mg/kg, read-out: % Inhibition of Absorption): -90%
